According to patent US20100267561A1, “HERBICIDAL PYRIDAZINONE DERIVATIVES” (priority 2007, published 2010):

Tests used:
Assay type in all cases: in vivo
[1] = tested on: pigweed (Amaranthus retroflexus); assay: Test A pre-/postemergence plant response
Summary of the method: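 Ratings are visual, 0–100, where 100 means complete control and 0 no effect, taken roughly 10 days after treatment by comparison with untreated controls. Formulation: non-phytotoxic solvent mixture with surfactant.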

[2] = tested on: spring barley (Hordeum vulgare); assay: Test C pre-/postemergence plant response
Summary of the method: (§1)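 Test chemicals in a non-phytotoxic solvent with surfactant were applied preemergence, and some were also applied postemergence to plants 2–18 cm tall (1- to 4-leaf stage). Visual ratings against controls were made after 15–25 days in a controlled environment, on a 0–100 scale where 100 means complete control.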

[3] = tested on: canarygrass (Phalaris minor); assay: Test C pre-/postemergence plant response
Summary of the method: as §1

[4] = tested on: winter barley (Hordeum vulgare); assay: Test C pre-/postemergence plant response
Summary of the method: as §1

[5] = tested on: pigweed (Amaranthus retroflexus); assay: Test C pre-/postemergence plant response
Summary of the method: as §1

[6] = tested on: wild mustard (Sinapis arvensis); assay: Test C pre-/postemergence plant response
Summary of the method: as §1

[7] = tested on: annual bluegrass (Poa annua); assay: Test C pre-/postemergence plant response
Summary of the method: as §1

[8] = tested on: Italian ryegrass (Lolium multiflorum); assay: Test C pre-/postemergence plant response
Summary of the method: as §1

[9] = tested on: winter wheat (Triticum aestivum); assay: Test C pre-/postemergence plant response
Summary of the method: as §1

[10] = tested on: green foxtail (Setaria viridis); assay: Test C pre-/postemergence plant response
Summary of the method: as §1

[11] = tested on: spring wheat (Triticum aestivum); assay: Test C pre-/postemergence plant response
Summary of the method: as §1

[12] = tested on: windgrass (Apera spica-venti); assay: Test C pre-/postemergence plant response
Summary of the method: as §1

[13] = tested on: blackgrass (Alopecurus myosuroides); assay: Test C pre-/postemergence plant response
Summary of the method: as §1

[14] = tested on: downy bromegrass (Bromus tectorum); assay: Test C pre-/postemergence plant response
Summary of the method: as §1

canola (Brassica rapa) = assay: Test C pre-/postemergence plant response
Summary of the method: as §1

wild oat (Avena fatua) = assay: Test C pre-/postemergence plant response
Summary of the method: as §1

[15] = Postemergence, 8 g ai/ha, scale 0 to 100, 0 no effect, 100 complete control
[16] = Postemergence, 16 g ai/ha, scale 0 to 100, 0 no effect, 100 complete control
[17] = Postemergence, 31 g ai/ha, scale 0 to 100, 0 no effect, 100 complete control
[18] = Postemergence, 62 g ai/ha, scale 0 to 100, 0 no effect, 100 complete control
[19] = Preemergence, 8 g ai/ha, scale 0 to 100 (0 no effect, 100 complete control)
[20] = Preemergence, 16 g ai/ha, scale 0 to 100 (0 no effect, 100 complete control)
[21] = Preemergence, 31 g ai/ha, scale 0 to 100 (0 no effect, 100 complete control)
[22] = Preemergence, 62 g ai/ha, scale 0 to 100, 0 no effect, 100 complete control

Cc1cc(-c2ccc(Cl)cc2)nn1-c1c(OC(=O)CC(C)C)cnn(C)c1=O [Compound 37]
Plant response rating, Pigweed ([1]; Postemergence, 31 g ai/ha, 0 to 100 scale, 0 no effect, 100 complete control): 0 | Plant response rating, Pigweed ([1]; Postemergence, 125 g ai/ha, 0 to 100 scale, 0 no effect, 100 complete control): 0 | Plant response rating, Pigweed ([1]; Preemergence, 31 g ai/ha, 0 to 100 scale, 0 is no effect, 100 is complete control): 0 | Plant response rating, Pigweed ([1]; Preemergence, 125 g ai/ha, 0 to 100 scale (0 no effect, 100 complete control)): 0 | Plant response rating, Barley, Spring [2, 15]: 0 | Plant response rating, Barley, Spring [2, 16]: 20 | Plant response rating, Barley, Spring [2, 17]: 50 | Plant response rating, Barley, Spring [2, 18]: 100 | Plant response rating, Barley, Spring [2, 19]: 0 | Plant response rating, Barley, Spring [2, 20]: 0 | Plant response rating, Barley, Spring [2, 21]: 15 | Plant response rating, Barley, Spring [2, 22]: 40 | Plant response rating, Canarygrass [3, 15]: 0 | Plant response rating, Canarygrass [3, 16]: 35 | Plant response rating, Canarygrass [3, 17]: 75 | Plant response rating, Canarygrass [3, 18]: 100 | Plant response rating, Canarygrass [3, 19]: 15 | Plant response rating, Canarygrass [3, 20]: 60 | Plant response rating, Canarygrass [3, 21]: 80 | Plant response rating, Canarygrass [3, 22]: 95 | Plant response rating, Barley, Winter [4, 15]: 10 | Plant response rating, Barley, Winter [4, 16]: 10 | Plant response rating, Barley, Winter [4, 17]: 25 | Plant response rating, Barley, Winter [4, 18]: 95 | Plant response rating, Barley, Winter [4, 19]: 0 | Plant response rating, Barley, Winter [4, 20]: 0 | Plant response rating, Barley, Winter [4, 21]: 20 | Plant response rating, Barley, Winter [4, 22]: 40 | Plant response rating, Pigweed [5, 15]: 0 | Plant response rating, Pigweed [5, 16]: 0 | Plant response rating, Pigweed [5, 17]: 0 | Plant response rating, Pigweed [5, 18]: 0 | Plant response rating, Pigweed [5, 19]: 0 | Plant response rating, Pigweed [5, 20]: 0 | Plant response rating, Pigweed [5, 21]: 0 | Plant response rating, Pigweed [5, 22]: 0 | Plant response rating, Mustard, Wild [6, 15]: 0 | Plant response rating, Mustard, Wild [6, 16]: 0 | Plant response rating, Mustard, Wild [6, 17]: 0 | Plant response rating, Mustard, Wild [6, 18]: 0 | Plant response rating, Mustard, Wild [6, 19]: 0 | Plant response rating, Mustard, Wild [6, 20]: 0 | Plant response rating, Mustard, Wild [6, 21]: 0 | Plant response rating, Mustard, Wild [6, 22]: 0 | Plant response rating, Bluegrass [7, 15]: 0 | Plant response rating, Bluegrass [7, 16]: 20 | Plant response rating, Bluegrass [7, 17]: 20 | Plant response rating, Bluegrass [7, 18]: 20 | Plant response rating, Bluegrass [7, 19]: 0 | Plant response rating, Bluegrass [7, 20]: 35 | Plant response rating, Bluegrass [7, 21]: 60 | Plant response rating, Bluegrass [7, 22]: 70 | Plant response rating, Ryegrass, Italian [8, 15]: 75 | Plant response rating, Ryegrass, Italian [8, 16]: 95 | Plant response rating, Ryegrass, Italian [8, 17]: 100 | Plant response rating, Ryegrass, Italian [8, 18]: 100 | Plant response rating, Ryegrass, Italian [8, 19]: 0 | Plant response rating, Ryegrass, Italian [8, 20]: 80 | Plant response rating, Ryegrass, Italian [8, 21]: 98 | Plant response rating, Ryegrass, Italian [8, 22]: 100 | Plant response rating, Wheat, Winter [9, 15]: 0 | Plant response rating, Wheat, Winter [9, 16]: 30 | Plant response rating, Wheat, Winter [9, 17]: 60 | Plant response rating, Wheat, Winter [9, 18]: 90 | Plant response rating, Wheat, Winter [9, 19]: 0 | Plant response rating, Wheat, Winter [9, 20]: 15 | Plant response rating, Wheat, Winter [9, 21]: 25 | Plant response rating, Wheat, Winter [9, 22]: 90 | Plant response rating, Foxtail, Green [10, 15]: 90 | Plant response rating, Foxtail, Green [10, 16]: 100 | Plant response rating, Foxtail, Green [10, 17]: 100 | Plant response rating, Foxtail, Green [10, 18]: 100 | Plant response rating, Foxtail, Green [10, 19]: 75 | Plant response rating, Foxtail, Green [10, 20]: 90 | Plant response rating, Foxtail, Green [10, 21]: 100 | Plant response rating, Foxtail, Green [10, 22]: 100 | Plant response rating, Wheat, Spring [11, 15]: 15 | Plant response rating, Wheat, Spring [11, 16]: 50 | Plant response rating, Wheat, Spring [11, 17]: 75 | Plant response rating, Wheat, Spring [11, 18]: 95 | Plant response rating, Wheat, Spring [11, 19]: 0 | Plant response rating, Wheat, Spring [11, 20]: 0 | Plant response rating, Wheat, Spring [11, 21]: 90 | Plant response rating, Wheat, Spring [11, 22]: 98 | Plant response rating, Windgrass [12, 15]: 0 | Plant response rating, Windgrass [12, 16]: 0 | Plant response rating, Windgrass [12, 17]: 15 | Plant response rating, Windgrass [12, 18]: 30 | Plant response rating, Windgrass [12, 19]: 0 | Plant response rating, Windgrass [12, 20]: 20 | Plant response rating, Windgrass [12, 21]: 60 | Plant response rating, Windgrass [12, 22]: 80 | Plant response rating, Blackgrass [13, 15]: 65 | Plant response rating, Blackgrass [13, 16]: 90 | Plant response rating, Blackgrass [13, 17]: 100 | Plant response rating, Blackgrass [13, 18]: 100 | Plant response rating, Blackgrass [13, 19]: 35 | Plant response rating, Blackgrass [13, 20]: 75 | Plant response rating, Blackgrass [13, 21]: 90 | Plant response rating, Blackgrass [13, 22]: 98 | Plant response rating, Bromegrass, Downy [14, 15]: 20 | Plant response rating, Bromegrass, Downy [14, 16]: 30 | Plant response rating, Bromegrass, Downy [14, 17]: 50 | Plant response rating, Bromegrass, Downy [14, 18]: 70 | Plant response rating, Bromegrass, Downy [14, 19]: 0 | Plant response rating, Bromegrass, Downy [14, 20]: 0 | Plant response rating, Bromegrass, Downy [14, 21]: 60 | Plant response rating, Bromegrass, Downy [14, 22]: 85 | Plant response rating, Canola (canola (Brassica rapa); [15]): 0 | Plant response rating, Canola (canola (Brassica rapa); [16]): 0 | Plant response rating, Canola (canola (Brassica rapa); [17]): 0 | Plant response rating, Canola (canola (Brassica rapa); [18]): 0 | Plant response rating, Canola (canola (Brassica rapa); [19]): 0 | Plant response rating, Canola (canola (Brassica rapa); [21]): 0 | Plant response rating, Canola (canola (Brassica rapa); [22]): 0 | Plant response rating, Oat, Wild (wild oat (Avena fatua); [15]): 25 | Plant response rating, Oat, Wild (wild oat (Avena fatua); [16]): 80 | Plant response rating, Oat, Wild (wild oat (Avena fatua); [17]): 90 | Plant response rating, Oat, Wild (wild oat (Avena fatua); [18]): 95 | Plant response rating, Oat, Wild (wild oat (Avena fatua); [19]): 20 | Plant response rating, Oat, Wild (wild oat (Avena fatua); [20]): 20 | Plant response rating, Oat, Wild (wild oat (Avena fatua); [21]): 70 | Plant response rating, Oat, Wild (wild oat (Avena fatua); [22]): 80
